Source: patent publication US4011221A, “S-Inosylcysteine and a process for producing the same” (Funai Pharmaceutical Industries, Ltd., priority 1974, dated 1977)

Tests used:
[1] = system: pylorus ligation ulcer; test: Effect on pylorus ligation ulcer in rats (Experiments 6 and 7); format: in vivo, Male Wister rats; details: for anti-ulcer activity (in words): summary statement, Tables VI to VIII
Method: a. Effect of S-inosylcysteine on pylorus ligation ulcer.
(§1) Method: Male Wister rats (Keari Gifu-Lab.), aged 7 weeks were used. After fasting for 48 hours, rats weighing 210 to 230 g were divided into 6 groups of 10 rats. The pylorus of stomach was ligated under light anesthesia with pentobarbital sodium (25 mg per kg, i.p.). Immediately after the ligation, a psysiological saline was orally administered to one group and a solution of each tested compound (50 mg per kg) was orally administered to the remaining 5 groups. After these rats were kept without food and water for 10 hours from the ligation, the stomach was removed under anesthesia with pentobarbital sodium (30 mg per kg, i.p.). The gastric contents were aspirated and the stomach was fixed by means of the injection of 10 ml of a 2% formalin solution into the lumen. The stomach was opened along its greater curvature. The severity of the lesion of the rumen, that is, the degree of ulcer was expressed as ulcer index according to the method of Yokotani (Folia pharmacol. Japon. 56, 1373, (1960). The results are shown in Table VI.
*Inhibition rate was calculated as follows: […]
Method: The same method as described in Experiment 6 was employed. The
effect of S-inosyl-L-cysteine
on pylorus ligation ulcer was examined with intramuscular administration.

[2] = system: chick embryo heart cells; test: Effect on proliferation of chick embryo heart cells in the presence of 6-mercaptopurine (Experiment 5); format: cell-based; details: Experiment 5, 20 μg/ml, 6-mercaptopurine 5 μg per ml; for activity at 20 µg/mL: Gallus gallus, 24 h
Method: (§2) Method: The hearts excised from 13-day-old chick embryos were cut into pieces 1 to 2 mm in diameter under sterile conditions. After washing with calcium and magnesium-free phosphate buffered saline (PBS), the pieces of hearts were treated with a solution of 0.1% trypsin in PBS freed from calcium and magnesium ions, and the supernatant fraction was discarded. The residue was treated with a solution of 0.1% trypsin in PBS freed from calcium and magnesium ions, and the supernatant fractions containing isolated cells were collected. The procedure was repeated 3 times. The supernatant fractions were combined and diluted with cold culture medium containing 10% fetal calf serum, sodium penicillin G (100 units per ml) and sulfate streptomycin (1 μg per ml), and centrifuged at 150 xG. The resulting pellet was washed twice with the culture medium and diluted cautiously with the same culture medium to give a suspension which contains 200,000 cells per ml. One ml of the suspension was poured into each of 28 culture tubes which were equally divided into 7 groups. The cells were cultured at 37° C in an incubator. After 1 day of incubation the culture medium of the tubes was removed and 1 ml of each culture medium containing compound shown in Table I was added thereto. After additional 3 days of incubation the culture medium was removed and the cells were then treated with 1 ml of 0.1 M citric acid containing 0.1% crystal violet. The number of cells was counted with a hemocytometer in quadruplicate after vigorous shaking.
(§3) Method: The culture procedure for chick embryo heart cells was employed as described in Experiment 1. After 3 days of incubation, the culture medium was removed and 1 ml of each culture medium containing compounds shown in Table II was added thereto. After an additional 1 day of incubation the number of cells was counted.
Method: Same as in Experiment 2 except that 6-mercaptopurine (5 μg per
ml) was added to each culture

[3] = system: chick embryo heart cells; test: Effect on proliferation of chick embryo heart cells in the presence of a growth inhibitor, KCN (Experiments 3 and 4); format: cell-based; details: for activity at 20 µg/mL / activity at 50 µg/mL: Gallus gallus; for activity at 20 µg/mL: 24 h
Method: as §2, with “After” for “Method: The hearts excised from 13-day-old chick embryos were cut into pieces 1 to 2 mm in diameter under sterile conditions. After”, “The resulting pellet was washed twice with the culture medium and diluted cautiously with the same culture medium to give a suspension which contains 200,000 cells per ml.” left out, “shaking. […] After 3 days of incubation, the culture medium was removed and 1 ml of each culture medium containing compounds shown in Table II was added thereto. After an additional 1 day of incubation the number of cells was counted. […] Method: The culture procedure for chick embryo heart cells was employed as described in Experiment 1. After one day of incubation, the culture medium was removed and 1 ml of each culture medium containing KCN (1.7 μg per ml) and compounds shown in Table III were added thereto.” for “shaking.”

[4] = system: chick embryo heart cells; test: Effect on proliferation of chick embryo heart cells (Experiments 1 and 2); format: cell-based; details: for Cell number + S.E. / activity at 50 µg/mL: Experiment 1, 50 μg/ml; for Cell number + S.E.: 3 days incubation; for Cell number ± S.E. / activity at 20 µg/mL: Experiment 2, 20 μg/ml; for Cell number ± S.E.: 1 day with compound after 3 days of incubation; for activity at 20 µg/mL / activity at 50 µg/mL: Gallus gallus, control = 100.0; for activity at 20 µg/mL: 24 h, read-out: Growth rate (%); for activity at 50 µg/mL: 72 h, read-out: Growth rate %; for cell-proliferating activity (in words): summary statement, Tables I to V
Method: A. Effect of S-inosylcysteine on proliferation of chick embryo heart cells.
as §2, §3

[5] = system: gastric secretion; test: Effect on gastric secretion in pylorus-ligated rats; format: in vivo, Male Wister rats; details: 50 mg/kg, p.o., 5 hours from ligation
Method: as §1
b. Effect of S-inosylcysteine on gastric secretion. Method: The rats were ligated in the same manner as in Experiment 6, and divided into 2 groups of 10 rats. Immediately after the ligation, a physiological saline or a solution of S-inosyl-L-cysteine was orally administered. After the rats were kept without food and water for 5 hours from the ligation, the esophagus was ligated and the stomach was removed under anesthesia with pentobarbital sodium (30 mg per kg. i.p.). The gastric contents were collected and centrifuged at 2,000 rpm for 10 minutes. The volume of supernatant was measured and its pH was determined with a pH meter (Hitach-Horiba Type M-5). Free-HCl, total-HCl and total-acidity in the supernatant were determined by the titration with 1/50 N NaOH using Topfer's solution and phenolphtalein solution as an indicator.

[6] = Experiment 6, 50 mg/kg, p.o., 10 hours from ligation
[7] = its control = 100.0, read-out: Growth Rate (%)
[8] = simultaneous with Experiment 2, read-out: Growth rate (%) with respect to control of Table II
[9] = Experiment 3, 50 μg/ml, KCN 1.7 μg per ml
[10] = Experiment 4, 20 μg/ml, KCN 1.7 μg per ml
[11] = Experiment 4, 20 μg/ml, KCN 1.7 μg per ml, KCN control = 100.0, read-out: Growth rate (%)
[12] = Experiment 4, 20 μg/ml, KCN 1.7 μg per ml, simultaneous with Experiment 2, read-out: Growth rate (%) with respect to control of Table II
[13] = Experiment 3, 50 μg/ml, KCN 1.7 μg per ml, KCN control = 100.0, read-out: Growth Rate %
[14] = Experiment 3, 50 μg/ml, KCN 1.7 μg per ml, simultaneous with Experiment 1, read-out: Growth rate (%) with respect to control of Table I

SMILES | Inhibition rate (%) of ulcer ([1]; Experiment 6, 50 mg/kg, p.o.) [%] | Mean ulcer index ± S.E. [1, 6] | Cell number ± S.E. [2] | activity at 20 µg/mL [2, 7] [%] | activity at 20 µg/mL [2, 8] [%] | Cell number ± S.E. [3, 9] | Cell number ± S.E. [3, 10] | activity at 20 µg/mL [3, 11] [%] | activity at 20 µg/mL [3, 12] [%] | activity at 50 µg/mL [3, 13] [%] | activity at 50 µg/mL [3, 14] [%] | Cell number + S.E. [4] | Cell number ± S.E. [4] | activity at 20 µg/mL [4] [%] | activity at 50 µg/mL [4] [%] | further results
N[C@@H](CSC[C@H]1O[C@@H](n2cnc3c(=O)[nH]cnc32)[C@H](O)[C@@H]1O)C(=O)O [S-inosyl-L-cysteine, 5'-S-(2-amino-2-carboxyethyl)-5'-thioinosine] | 42 | 8.1 ± 1.1 | 85.8 ± 2.9 ×10^4 cells | 126 | 105 | 50.9 ± 1.5 ×10^4 cells | 85.6 ± 0.4 ×10^4 cells | 130 | 105 | 159 | 100 | 65.4 ± 1.6 ×10^4 cells | 97.8 ± 3.8 ×10^4 cells | 120 | 128 | Inhibition rate (%) of ulcer ([1]; Experiment 7, 50 mg/kg, i.m.): 59%; Mean ulcer index ± S.E. ([1]; Experiment 7, 50 mg/kg, i.m.): 5.1 ± 1.6; anti-ulcer activity (in words) ([1]; listed as S-inosyl cysteine): superior to those of known related compounds (7) to (10); anti-ulcer activity (in words) ([1]; listed as S-inosylsteine): excellent; cell-proliferating activity (in words) ([4]; listed as S-inosycysteine): superior to those of known related compounds (2) to (10); cell-proliferating activity (in words) ([4]; listed as S-inosylcysteine): remarkable; cell-proliferating activity (in words) ([4]; listed as S-inosylsteine): excellent; Free-HCl, inhibition rate % [5]: 36%; Total-HCl, inhibition rate (%) [5]: 23%; Total-acidity [5]: 83.2 mEq/l; Total-acidity, inhibition rate (%) [5]: 22%; Volume, inhibition rate (%) [5]: 38%; pH (gastric contents supernatant) [5]: 1.50 ± 0.06; Free-HCl ([5]; ± S.E.): 42.8 ± 6.0 mEq/l; Total-HCl ([5]; ± S.E.): 73.8 ± 6.4 mEq/l; Volume (gastric contents supernatant) ([5]; ± S.E.): 5.3 ± 0.5 mL
N[C@@H](CCSC[C@H]1O[C@@H](n2cnc3c(=O)[nH]cnc32)[C@H](O)[C@@H]1O)C(=O)O [S-inosyl-L-homocysteine] | 12 | 12.3 ± 1.1 | 65.3 ± 3.7 ×10^4 cells | 95.6 | 80 | – | 73.5 ± 1.7 ×10^4 cells | 112 | 90.1 | – | – | – | 78.2 ± 7.5 ×10^4 cells | 95.8 | – | –
Nc1ncnc2c1ncn2[C@@H]1O[C@H](CO)[C@@H](O)[C@H]1O [adenosine] | – | – | – | – | – | 33.3 ± 1.9 ×10^4 cells | – | – | – | – | – | 44.1 ± 5.6 ×10^4 cells | – | – | 86.6 | activity at 50 µg/mL ([3]; read-out: Growth Rate %): 104%; activity at 50 µg/mL ([3]; read-out: Growth rate (%) with respect to control of Table I): 65.4%
OC[C@H]1O[C@@H](n2cnc3c(O)ncnc32)[C@H](O)[C@@H]1O [inosine] | – | – | – | – | – | 37.2 ± 4.4 ×10^4 cells | – | – | – | 116 | 73.1 | 54.1 ± 2.0 ×10^4 cells | – | – | 106 | –
